Laboratory results taken from publication PMC4742142, “Identification of novel, in vivo active Chk1 inhibitors utilizing structure guided drug design” (Oncotarget, 2015).
Where “and” joins values, the source holds several entries; their conditions need not be identical. Equal entries are not always repeated. Entries after “also recorded” stand apart in the source; their conditions may differ.

Key:
[1] = test system: HT29 cells; experiment: Clonogenicity (colony formation) assay; assay type: cell-based, human; conditions: HT29, 300 nM V158411 with gemcitabine, camptothecin or SN38
Method: HT29 cells were plated at a density of 300 cells per well in 6-well plates and allowed to attach for 4 hours. Cells were treated with gemcitabine, camptothecin or SN38 in the absence or presence of V158411 for 24 hours followed by drug free media for a further 14 days. Resulting colonies were stained and fixed with 0.1% crystal violet in 10% formaldehyde.

[2] = test system: Colo205; experiment: Single agent cytotoxicity assay (SRB, 72 hours); assay type: cell-based; conditions: Homo sapiens, COLO 205, Colo205, colon
Method: (§1) All cells were obtained from the American Type Culture Collection and maintained as low passage stocks. Cells were routinely cultured in DMEM or RPMI1640 containing 10% FCS and 1% penicillin / streptomycin (Invitrogen). The cytotoxicity of V158411 was determined following exposure of cells in 96 well plates using a 10-point titration for 72 hours. Cell proliferation was determined using sulphorhodamine B staining following protein precipitation with 10% TCA.

[3] = test system: A549; experiment: Single agent cytotoxicity assay (SRB, 72 hours); assay type: cell-based; conditions: Homo sapiens, A549, lung
Method: as §1

[4] = test system: HCT116; experiment: Single agent cytotoxicity assay (SRB, 72 hours); assay type: cell-based; conditions: Homo sapiens, HCT-116, HCT116, colon
Method: as §1

[5] = test system: NCI-H460; experiment: Single agent cytotoxicity assay (SRB, 72 hours); assay type: cell-based; conditions: Homo sapiens, NCI-H460, lung
Method: as §1

[6] = test system: NCI-H520; experiment: Single agent cytotoxicity assay (SRB, 72 hours); assay type: cell-based; conditions: Homo sapiens, NCI-H520, lung
Method: as §1

[7] = test system: Colo205 xenografts; experiment: Colo205 xenograft antitumor efficacy; assay type: in vivo
Text: Xenograft studies were undertaken by Charles River Laboratories Discovery Services, North Carolina. On the day of tumor cell implant, Colo205 cells were harvested and resuspended in 50% Matrigel matrix (BD Biosciences) in PBS at a concentration of 5 × 10^6 cells/mL. Each test mouse received 1 × 10^6 Colo205 cells implanted subcutaneously (SC) in the flank of female athymic nude mice (HRLN or NCr nu/nu), and tumor growth was monitored as the average size approached 100-150 mm^3. The SW620 tumor line was maintained by serial SC transplantation in female athymic nude mice (HRLN nu/nu). Tumor fragments, approximately 1 mm^3 each, were implanted SC into the right flank of each animal and allowed to grow towards a target size of 100-150 mm^3. On day 1 of the study, tumors were randomized into treatment groups before compound administration.
V158411 was formulated in D5W and administered via IV injection into the tail vein. Cyclic treatment regimens were followed and treatment ranged from 2-3 cycles.
Tumor size was measured with electronic calipers and tumor volume calculated according to the formula ((width × width) × length) /2.
The study endpoint was defined as a tumor volume of 750 mm^3 for Colo205 or 1500 mm^3 for SW620, or day 60, whichever came first. Each animal was euthanized when its' tumor reached this endpoint. The time to endpoint (TTE) for each mouse was calculated from the equation TTE = (log10(endpoint volume)-b)/m where b is the intercept and m the slope of the line obtained by linear regression of a log-transformed tumor growth data set.

[8] = Colo205, 75 mg/kg irinotecan IP followed by 30 mg/kg V158411 IV
[9] = Colo205, 75 mg/kg irinotecan IP followed by 60 mg/kg V158411 IV

## CN(C)CC(C)(C)COc1ccc2[nH]c(-c3cc(NC(=O)c4cnn(Cc5ccccc5)c4)c[nH]c3=O)cc2c1 [V158411]
[1]
  effect on fraction of cells killed in colony formation: significantly increased the fraction of cells killed by all three agents
[2]
  GI50: 1.6 ± 0.42 µM
[3]
  GI50: 1.4 ± 0.35 µM
[4]
  GI50: 4 ± 0.78 µM
[5]
  GI50: 2.7 ± 0.93 µM
[6]
  GI50: 0.55 ± 0.14 µM
[7]; Colo205, 60 mg/kg IV V158411 monotherapy, untreated 19.8 days
  Median TTE: 22.3 days
[7]; Colo205, 60 mg/kg V158411 monotherapy
  single agent anti-tumor activity: inactive; also recorded: no single agent activity
[7]; [8]
  %TGD: 129%
  T-C: 25.6
[7]; Colo205, 75 mg/kg irinotecan IP followed by 30 mg/kg V158411 IV 2 hours later, q7d 3 cycles
  Median TTE: 45.4 days
[7]; [9]
  %TGD: 203%
  T-C: 40.2
[7]; Colo205, 75 mg/kg irinotecan IP followed by 60 mg/kg V158411 IV 2 hours later, q7d 3 cycles, study end day 60
  Median TTE: 60.0 days and 60 days
[7]; Colo205, irinotecan plus V158411 combination therapy, day 4
  mean body weight nadir: −2.7%
